# Results reported in patent US5256533A, “As a probe of serotonin uptake harmaline” (Board of Regents, The University of Texas System, priority 1990, dated 1993).
# pEC50, pIC50: −log10 of the molar value. “Also recorded” adds a separate entry of the source.
# What was measured:
# [1] = target: [^3 H]Serotonin binding sites of brain tissue; assay: Inhibition of [3H]serotonin binding by brain homogenates; settings: concentration causing 50% inhibition of isotope binding
# Protocol: (§1) TABLE 1 illustrates the general inhibitory effects of beta carbolines on neurotransmitter binding by brain tissue. Samples of brain tissue rich in the respective neurotransmitter binding sites were obtained, homogenized, washed and incubated with a series of beta carboline concentrations. After subsequent additions of tritiated neurotransmitters, the extent of beta carboline inhibition of labeled neurotransmitter binding was measured. As shown, a variety of beta carbolines were effective antagonists of several neurotransmitters. […] These beta carbolines may be used as vital stains for the respective neurotransmitter systems, accumulating in living tissue.
# [2] = target: [^3 H]GABA binding sites of brain tissue; assay: Inhibition of [3H]GABA binding by brain homogenates; settings: concentration causing 50% inhibition of isotope binding
# Protocol: (§2) Samples of brain tissue rich in the respective neurotransmitter binding sites were obtained, homogenized, washed and incubated with a series of beta carboline concentrations. After subsequent additions of tritiated neurotransmitters, the extent of beta carboline inhibition of labeled neurotransmitter binding was measured.
# [3] = target: [^3 h]Noradrenaline binding sites of brain tissue; assay: Inhibition of [3H]noradrenaline binding by brain homogenates; settings: concentration causing 50% inhibition of isotope binding
# Protocol: as §2
# leukocytes and platelets = assay: Harmaline accumulation in blood cells by spectrophotofluorometry; format: cell-based, human
# Protocol: (§3) For this experiment, the beta carboline, harmaline was used. […] Prior to the use of a beta carboline to analyze blood tissues, blood was collected, then leukocytes and platelets were gradient separated utilizing a hypaque/centrifugation technique. The leukocytes were then re-suspended in culture media (phosphate buffered saline (PBS) with bovine serum albumin) at a concentration of […]. The cells and platelets may then be incubated with a solution containing antagonist(s) or blockers of undesired neurotransmitter interactions. With harmaline, there is some amount of cross reactivity with the alpha-2 (noradrenaline) receptor. […] The labelled cells were then analyzed using both spectrophotofluorometry and ultraviolet flow cytometry. With the flow cytometry-analyzed tissue an experiment to detect the presence of imipramine, the serotonin uptake system antagonist, was implemented.
# In spectrophotofluorometry (SPF), a volume of labeled cells in suspension are analyzed together, the sum of their emitted fluorescence recorded using a spectrophotofluorometer and compared with other samples with the same concentration of cells. […] This method assumes that the fluorescence emitted from a sum of collected sources (cells) increases proportionally with an individual source. […]
# [4] = system: lymphocytes and platelets; assay: Harmaline accumulation in blood cells by ultraviolet flow cytometry; format: cell-based, human
# Protocol: as §3, with “receptor. As the blood cells and platelets both have alpha-2 receptors, the noradrenaline antagonist, yohimbine was chosen to block undesired reactivity with these sites. Cells were incubated for 10 minutes with a 100 μM solution of yohimbine. The cells were then divided into numerous samples which were each exposed to increasing concentrations of harmaline (1 μM to 100 μM concentrations were used) for a period of five minutes each.” for “receptor.”
# With flow cytometry, a sample of cells was treated prior to analysis, as above. Fluorescence of individual cells was then analyzed sequentially as they passed through detection beams of light in a micro-stream of fluid. Using this method, literally emissions of cells, or "events" were analyzed and statistically computed to elicit accuracy of analysis. In addition, as individual cells are analyzed, more subtle changes in fluorescence ligand-cell association can be appreciated. There are some procedures for measuring the actual number of binding sites on cells which combine flow cytometry with steady-state fluorescence (Steinkamp and Kramer 1979) or radiometric assays (Titus et al. 1981), while others employ fluorescent calibration standards (Sklar et al. 1984). […]
# rat retina = assay: Fluorescent harmaline accumulation in perfused living retina; format: cell-based
# Protocol: One test of the serotonin site ligand, harmaline, is in the neuronal tissue of the rat retina. This tissue is known to contain intracellular serotonin. The serotonergic neurotransmitter system in rat retinal neurons has been previously studied and sites of serotonin accumulation have been identified (Redburn and Churchill 1987) primarily using radiolabelled ^3 H-serotonin (see FIG. 2). According to one test of the invention, it was determined that harmaline accumulated in living rat retina tissue in a specific manner. […] The harmaline present in the OPL begins to dissipate when the stained retina is exposed to sodium-free buffer (see FIG. 3, frame B). Exposure of the stained retina to darkness stimulates harmaline release from the OPL (see FIG. 3, frame C). Further, quantitative evaluation of harmaline accumulation was achieved by measuring the amount of fluorescence given off by harmaline when excited with UV-radiation. A light meter was used to generate data. The light meter gathered light emissions from the eyepiece of an ultraviolet microscope. Harmaline's excitation spectrum is 350-390 nm with emission spectra greatest at 480 and 560 nm in the visible range producing a blue green light. Tissue was placed under a microscope in a sealed perfusion chamber through which oxygenated (95% O2 -5% CO2) buffer flowed. Upon administration of harmaline, data from the light meter was standardized to units of harmaline concentration (using standard curves).
# [5] = system: ^3 H-serotonin uptake by retina; assay: Inhibition of 3H-serotonin uptake in retina (FIG. 5); format: cell-based
# opiate sites = settings: Muller et al. 1981; cited from earlier work
# [6] = system: muscarinic cholinergic sites; settings: Muller et al. 1981; cited from earlier work
# benzodiazepine receptor = settings: Muller et al. 1981; cited from earlier work
# monoamine oxidase A = settings: Fuller et al. 1985; cited from earlier work
# serotonin receptors = settings: Glennon 1981; cited from earlier work
# [7] = target: [^3 H]Choline binding sites of brain tissue; assay: Inhibition of [3H]choline binding by brain homogenates; settings: concentration causing 50% inhibition of isotope binding
# Protocol: as §2
# [8] = target: [^14 C]Dopamine binding sites of brain tissue; assay: Inhibition of [14C]dopamine binding by brain homogenates; settings: read-out: IC50, inhibition binding, concentration causing 50% inhibition of isotope binding
# Protocol: as §1, with “After subsequent additions of tritiated neurotransmitters, the extent of beta carboline inhibition of labeled neurotransmitter binding was measured.” left out
# [9] = system: noradrenergic system of blood cells and platelets; assay: THN accumulation in blood cells and platelets, noradrenaline system; format: cell-based; settings: imipramine 100 μM and serotonin 100 μM pretreatment; extrapolated from literature
# Protocol: The analysis of a noradrenaline system using the beta carboline tetrahydronorharman (THN) could be tested using the method described with blood cells and platelets. Cells and platelets would be collected, then pre-treated with solutions to block sites of the serotonin system in order to limit interactions to that of the noradrenergic system. Cells would be first incubated for 10 minutes with the serotonin uptake blocker, imipramine at 100 μM, following which serotonin itself was added to make a concentration of 100 μM for an additional 5 minute incubation. The cells and platelets thusly prepared would then be incubated with the beta carboline, THN, at concentrations of 10 nM to 100 μM. […] These values were obtained via extrapolation from pertinent literature on THN and noradrenaline.
# [10] = perfusion concentration 5 μM harmaline
Compound,pIC50 [1],pIC50 [2],pIC50 [3],Inhibition of ^3 H-serotonin uptake by retina [5],pIC50 [7],pIC50 [8],also measured
"7-methoxy-3,4-dihydro-beta-carboline [harmaline]",4.37,3.62,4.37,competitively inhibited,–,–,"Nature of accumulation in human lymphocytes (leukocytes and platelets; fluorescence measurement): saturable, concentration-dependant phenomena; pEC50 (leukocytes and platelets; yohimbine 100 μM pretreatment, harmaline 1-100 μM, 5 minutes, read-out: EC50 of fluorescent accumulation (spectrophotofluorometry)): 4.52; Concentration at which accumulation saturates ([4]; at 5 minutes): 75 to 100 µM; pEC50 ([4]; yohimbine 100 μM pretreatment, harmaline 1-100 μM, 5 minutes, read-out: EC50 of fluorescent accumulation (flow cytometry)): 4.60; Accumulation inside versus outside the cell (rat retina): three times greater inside than outside the cell; Dependence of accumulation in retina (rat retina): sodium dependent, energy dependent; Harmaline concentration in outer retina relative to control (non-viable) tissue (rat retina; [10]): 3 fold; Harmaline concentration in outer retina relative to surrounding perfusate (rat retina; [10]): 3 fold; IC50 for opiate sites relative to other sites (opiate sites): about four times lower than for serotonin or dopamine sites; also recorded: about four times higher than found for benzodiazepine antagonism; IC50 for muscarinic cholinergic sites relative to other sites [6]: about four times lower than for serotonin or dopamine sites; also recorded: about four times higher than found for benzodiazepine antagonism; Potency at benzodiazepine binding relative to serotonin or dopamine (benzodiazepine receptor): far more potent antagonist of benzodiazepine binding than it is for serotonin or dopamine; Inhibition of monoamine oxidase A in vivo (monoamine oxidase A): potently inhibit; Binding affinity for serotonin receptors (serotonin receptors): high binding affinities"
"c1ccc2c3c([nH]c2c1)CNCC3 [1,2,3,4-tetrahydro-beta-carboline]",5.22,3.82,4.89,–,2.05,3.66,THN concentration at which fluorescent accumulation saturates [9]: approximately 10 μM
COc1ccc2c(c1)[nH]c1c(C)nccc12 [7-methoxy-1-methyl-beta-carboline],4.57,–,3.15,–,3.70,–,–
c1ccc2c(c1)[nH]c1cnccc12 [beta-carboline],5.04,3.47,4.10,–,4.12,4.00,–
CN(C)CCCN1c2ccccc2CCc2ccccc21 [imipramine],–,–,–,antagonized,–,–,Effect on measured harmaline accumulation ([4]; brief incubation with imipramine 25 μM): the measured harmaline accumulation was less
